Data set [1] in a line: Abafungin solubility in excipients (Example 1). The class given is physicochemical. On the procedure: To order to study the solubility of abafungin, abafungin was dissolved in a number of excipients.
Data set [2] can be described thus: Fungicidal concentrations of abafungin (stated in Example 4). The class given is cell-based.
For data set [3] the following is noted: not measured, data according to Neues Rezeptur-Formularium, cited from earlier work.

Like-named read-outs stand apart in the source and are kept apart here. Marks after values point to notes of the source that are not given here.

As to `Cc1ccc(Oc2ccccc2-c2csc(N=C3NCCCN3)n2)c(C)c1` [abafungin], the Not soluble result in data set [1] (excipient: MPEG 550), in data set [1] (excipient: MPEG 2000), in data set [1] (excipient: PEG 400), in data set [1] (excipient: PEG 1500), in data set [1] (excipient: PEG 4500) and in data set [1] (excipient: PEG 6000) was “✓” in each case. Moreover, the Not soluble result in data set [1] (excipient: PEG 12000), in data set [1] (excipient: PEG 20000), in data set [1] (excipient: cetearyl ethylhexanoate (cosmetic oils)), in data set [1] (excipient: decyl oleate (cosmetic oils)), in data set [1] (excipient: ethanol) and in data set [1] (excipient: ethanol 70%) was “✓” each time. For the same compound, the Not soluble entry in data set [1] (excipient: glycerine), in data set [1] (excipient: isopropanol), in data set [1] (excipient: isopropyl myristate (cosmetic oils)), in data set [1] (excipient: isopropyl palmitate (cosmetic oils)), in data set [1] (excipient: medium chain triglyceride (cosmetic oils)) and in data set [1] (excipient: propylene glycol) was “✓” in each case. Besides, the Not soluble entry in data set [1] (excipient: water) is given as “✓”. Also, in data set [1] (excipient: transcutol), the Soluble entry is “✓ (3%)”. For the same compound, the “solubility” value in data set [1] (mixture of water, polyethylene glycol, polyethylene glycol monomethyl ether and an acid such as formic acid) was “soluble”. This compound also gave a fungicidal concentrations in data set [2] of 16 to 30 µg/mL.

Turning to `Cc1cc(C2CCCCC2)n(O)c(=O)c1` [Ciclopirox Olamine], the values for the maximum solubility result in data set [3] (Ethanol gel (NRF 11.84)), in data set [3] (Pure ethanol) and in data set [3] (Pure water) were “~soluble*^5”, “~soluble*^5” and ~1-3%*^5, respectively.

The record behind these values is patent US20110059985A1, “NOVEL FORMULATION” (priority 2007, published 2011).
